Results taken from publication PMC9005681, “Use of AD Informer Set compounds to explore validity of novel targets in Alzheimer's disease pathology” (Alzheimer's & Dementia : Translational Research & Clinical …, 2022).

Experiments:
Assay in all cases: PDSP GPCR panel primary binding assays at 10 μM
[1] = molecular target: T1, cloned human or rodent CNS receptors, channels, and transporters (PDSP panel) (Homo sapiens, UniProt P21917); settings: Receptor D4, primary assay, 10 μM
T1 construct: expressed in transfected cells
T1 sequence (P21917 1-419): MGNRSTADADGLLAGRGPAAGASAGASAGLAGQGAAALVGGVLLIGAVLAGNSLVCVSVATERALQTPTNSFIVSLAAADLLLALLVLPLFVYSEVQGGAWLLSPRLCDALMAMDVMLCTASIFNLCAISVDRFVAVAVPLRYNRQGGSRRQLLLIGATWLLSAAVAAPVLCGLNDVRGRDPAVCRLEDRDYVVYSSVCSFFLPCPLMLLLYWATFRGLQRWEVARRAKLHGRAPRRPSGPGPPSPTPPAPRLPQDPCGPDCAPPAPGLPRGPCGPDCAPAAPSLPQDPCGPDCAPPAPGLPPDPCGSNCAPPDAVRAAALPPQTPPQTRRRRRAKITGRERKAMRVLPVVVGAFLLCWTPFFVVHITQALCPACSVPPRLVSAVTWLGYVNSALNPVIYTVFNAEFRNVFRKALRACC
Outline: (§1)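 PDSP panel of 46–47 cloned human or rodent CNS receptors, channels and transporters; radioligand displacement by compound at 10 μM, in quadruplicate. Where average displacement exceeded 50%, secondary binding followed as 11-point dose-response in triplicate (none for H3, PBR or GABAA).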

[2] = molecular target: T2, cloned human or rodent CNS receptors, channels, and transporters (PDSP panel) (Homo sapiens, UniProt P08908); settings: Receptor 5-HT1A, primary assay, 10 μM
T2 construct: expressed in transfected cells
T2 sequence (P08908 1-422): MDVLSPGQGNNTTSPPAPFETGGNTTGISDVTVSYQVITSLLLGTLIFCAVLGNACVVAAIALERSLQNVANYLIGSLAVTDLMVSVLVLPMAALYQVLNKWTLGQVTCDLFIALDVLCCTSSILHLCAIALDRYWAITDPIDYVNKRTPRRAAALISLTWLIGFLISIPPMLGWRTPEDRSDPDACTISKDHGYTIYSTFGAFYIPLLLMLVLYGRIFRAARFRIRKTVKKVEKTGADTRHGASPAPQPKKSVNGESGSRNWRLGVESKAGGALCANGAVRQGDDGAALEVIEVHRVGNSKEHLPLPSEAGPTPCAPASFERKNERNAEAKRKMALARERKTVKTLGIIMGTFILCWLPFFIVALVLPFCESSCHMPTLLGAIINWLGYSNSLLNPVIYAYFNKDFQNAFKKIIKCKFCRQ
Outline: as §1

[3] = molecular target: T3, cloned human or rodent CNS receptors, channels, and transporters (PDSP panel) (Homo sapiens, UniProt P08173); settings: Receptor M4, primary assay, 10 μM
T3 construct: expressed in transfected cells
T3 sequence (P08173 1-479): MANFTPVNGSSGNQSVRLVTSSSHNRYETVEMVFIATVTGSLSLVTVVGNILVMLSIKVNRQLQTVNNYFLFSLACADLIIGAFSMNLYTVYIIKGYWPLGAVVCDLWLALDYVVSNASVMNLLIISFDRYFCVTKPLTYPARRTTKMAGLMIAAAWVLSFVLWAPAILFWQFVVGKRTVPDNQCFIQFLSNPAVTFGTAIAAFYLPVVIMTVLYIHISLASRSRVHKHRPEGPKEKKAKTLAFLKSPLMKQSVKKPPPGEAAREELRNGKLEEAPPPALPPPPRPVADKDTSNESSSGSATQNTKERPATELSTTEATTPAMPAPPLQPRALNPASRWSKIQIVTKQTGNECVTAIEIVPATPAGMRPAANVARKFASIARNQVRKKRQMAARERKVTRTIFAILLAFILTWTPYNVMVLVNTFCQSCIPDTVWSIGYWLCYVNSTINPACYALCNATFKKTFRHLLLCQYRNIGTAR
Outline: as §1

[4] = tested on: cloned human or rodent CNS receptors, channels, and transporters (PDSP panel); settings: 10 μM; for Inhibition 1 / Inhibition 2 / Inhibition 3 / Inhibition 4 / Mean %: primary assay; for Mean %: mean of Inhibition 1-4
Outline: as §1

[5] = molecular target: T4, cloned human or rodent CNS receptors, channels, and transporters (PDSP panel) (Homo sapiens, UniProt P20309); settings: Receptor M3, primary assay, 10 μM
T4 construct: expressed in transfected cells
T4 sequence (P20309 whole entry): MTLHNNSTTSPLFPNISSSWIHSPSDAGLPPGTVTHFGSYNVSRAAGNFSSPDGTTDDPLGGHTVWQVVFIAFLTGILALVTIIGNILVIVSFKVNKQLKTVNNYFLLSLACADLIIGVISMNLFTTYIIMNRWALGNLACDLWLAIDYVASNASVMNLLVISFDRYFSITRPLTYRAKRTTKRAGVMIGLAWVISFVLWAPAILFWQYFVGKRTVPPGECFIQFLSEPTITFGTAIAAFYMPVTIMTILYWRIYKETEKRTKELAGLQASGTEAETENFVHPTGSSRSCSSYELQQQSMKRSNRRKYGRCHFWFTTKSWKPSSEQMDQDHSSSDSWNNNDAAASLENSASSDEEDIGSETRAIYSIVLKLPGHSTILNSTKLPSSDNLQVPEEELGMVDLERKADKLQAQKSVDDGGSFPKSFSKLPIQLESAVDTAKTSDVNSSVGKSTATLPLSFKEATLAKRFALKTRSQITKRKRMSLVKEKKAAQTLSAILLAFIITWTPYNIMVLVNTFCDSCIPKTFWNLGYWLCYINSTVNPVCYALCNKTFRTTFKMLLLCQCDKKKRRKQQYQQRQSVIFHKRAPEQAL
Outline: as §1

[6] = molecular target: T5, cloned human or rodent CNS receptors, channels, and transporters (PDSP panel) (Homo sapiens, UniProt P50406); settings: Receptor 5-HT6, primary assay, 10 μM
T5 construct: expressed in transfected cells
T5 sequence (P50406 whole entry): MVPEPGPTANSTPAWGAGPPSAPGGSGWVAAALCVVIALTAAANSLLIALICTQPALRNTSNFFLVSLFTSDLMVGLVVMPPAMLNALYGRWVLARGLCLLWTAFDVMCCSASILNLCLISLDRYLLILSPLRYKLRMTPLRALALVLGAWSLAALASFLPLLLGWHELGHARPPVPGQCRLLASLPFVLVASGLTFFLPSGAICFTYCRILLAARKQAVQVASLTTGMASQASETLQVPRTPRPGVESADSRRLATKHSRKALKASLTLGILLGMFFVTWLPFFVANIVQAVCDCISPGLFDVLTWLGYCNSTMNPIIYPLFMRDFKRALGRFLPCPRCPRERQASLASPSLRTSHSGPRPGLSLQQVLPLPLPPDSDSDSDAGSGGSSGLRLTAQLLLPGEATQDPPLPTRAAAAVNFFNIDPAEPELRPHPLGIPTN
Outline: as §1

CCCCNc1ncc2c(-c3ccc(CN4CCN(C)CC4)cc3)cn([C@H]3CC[C@H](O)CC3)c2n1 [UNC2025C, UNC2025]
Inhibition 1 [1]: 1.91%
Inhibition 2 [1]: -16.35%
Inhibition 3 [1]: 0.67%
Inhibition 4 [1]: 12.24%
Mean % ([1]; mean of Inhibition 1-4): -0.38%
Inhibition 1 [2]: 9.39%
Inhibition 2 [2]: -18.53%
Inhibition 3 [2]: 19.05%
Inhibition 4 [2]: 31.46%
Mean % ([2]; mean of Inhibition 1-4): 10.34%
Inhibition 1 [3]: 21.02%
Inhibition 2 [3]: 3.79%
Inhibition 3 [3]: -16.19%
Inhibition 4 [3]: 18.49%
Mean % ([3]; mean of Inhibition 1-4): 6.78%
Affinity for receptors in primary assays ([4]; 46-47 primary binding assays): possessed affinity for the most receptors in primary assays
Inhibition 1 ([4]; Receptor Alpha1A): 55.27%
Inhibition 2 ([4]; Receptor Alpha1A): 34.14%
Inhibition 3 ([4]; Receptor Alpha1A): 47.98%
Inhibition 4 ([4]; Receptor Alpha1A): 43.68%
Mean % ([4]; Receptor Alpha1A): 45.27%
Inhibition 1 ([4]; Receptor Alpha2A): 41.44%
Inhibition 2 ([4]; Receptor Alpha2A): 35.02%
Inhibition 3 ([4]; Receptor Alpha2A): 40.8%
Inhibition 4 ([4]; Receptor Alpha2A): 38.73%
Mean % ([4]; Receptor Alpha2A): 39%
Inhibition 1 ([4]; Receptor Alpha2C): 51.96%
Inhibition 2 ([4]; Receptor Alpha2C): 38.52%
Inhibition 3 ([4]; Receptor Alpha2C): 26.65%
Inhibition 4 ([4]; Receptor Alpha2C): 27.54%
Mean % ([4]; Receptor Alpha2C): 36.17%
Inhibition 1 ([4]; Receptor BZP Rat Brain Site): -0.21%
Inhibition 2 ([4]; Receptor BZP Rat Brain Site): 6.71%
Inhibition 3 ([4]; Receptor BZP Rat Brain Site): 5.47%
Inhibition 4 ([4]; Receptor BZP Rat Brain Site): 13.44%
Mean % ([4]; Receptor BZP Rat Brain Site): 6.35%
Inhibition 1 ([4]; Receptor DOR): -5.58%
Inhibition 2 ([4]; Receptor DOR): -6.66%
Inhibition 3 ([4]; Receptor DOR): -9.56%
Inhibition 4 ([4]; Receptor DOR): 1.65%
Mean % ([4]; Receptor DOR): -5.04%
Inhibition 1 ([4]; Receptor H3): 93.48%
Inhibition 2 ([4]; Receptor H3): 95.52%
Inhibition 3 ([4]; Receptor H3): 93.48%
Inhibition 4 ([4]; Receptor H3): 100.47%
Mean % ([4]; Receptor H3): 95.74%
Inhibition 1 ([4]; Receptor H4): 42.06%
Inhibition 2 ([4]; Receptor H4): 42.3%
Inhibition 3 ([4]; Receptor H4): 60.79%
Inhibition 4 ([4]; Receptor H4): 92.47%
Mean % ([4]; Receptor H4): 59.41%
Inhibition 1 ([4]; Receptor Sigma 1): 4.46%
Inhibition 2 ([4]; Receptor Sigma 1): 61.96%
Inhibition 3 ([4]; Receptor Sigma 1): 35.63%
Inhibition 4 ([4]; Receptor Sigma 1): 46.38%
Mean % ([4]; Receptor Sigma 1): 37.11%
Inhibition 1 ([4]; Receptor Sigma 2): 97.53%
Inhibition 2 ([4]; Receptor Sigma 2): 96.04%
Inhibition 3 ([4]; Receptor Sigma 2): 97.25%
Inhibition 4 ([4]; Receptor Sigma 2): 98.03%
Mean % ([4]; Receptor Sigma 2): 97.21%
Inhibition 1 [5]: -7.29%
Inhibition 2 [5]: -5.9%
Inhibition 3 [5]: -6.87%
Inhibition 4 [5]: 2.81%
Mean % ([5]; mean of Inhibition 1-4): -4.31%
Inhibition 1 [6]: -20.29%
Inhibition 2 [6]: 0.2%
Inhibition 3 [6]: -8.54%
Inhibition 4 [6]: -2.02%
Mean % ([6]; mean of Inhibition 1-4): -7.66%
